Source: PubChem BioAssay AID977606 (Broad Institute, 2014)

What follows are molecules tested on INS-1E Gaussia luciferase insulin secretion, no glucose, luminescence (assay: insulin secretion activators without glucose, dose response, counter-screen for glucose-dependent insulin secretion activators, cell-based, INS-1E, Gaussia luciferase, luminescence, cherry-pick (AID 977606)).

| Structure (SMILES) | AC40 [µM] |
| --- | --- |
| CN(C)CCNC(=O)c1cccc(-c2cc(NC=O)c3ncc(-c4cccc(C(F)(F)F)c4)n3c2)c1 | 13.7 |
| CC(C)(C)c1ccc(-c2cc(-c3ccccc3O)[nH]n2)cc1 | 5.34 |
| CCOc1ccc2nc(NCCNC(=O)Nc3ccccc3)c(C#N)cc2c1 | 8.22 |
| Cc1cc(NC(=O)c2ccccc2F)n(-c2nc3ccccc3[nH]2)n1 | 4.6 |
| CC(C)(C)C1CCc2c(sc(NC(=O)c3cccs3)c2C(N)=O)C1 (stereo not given) | 16.5 |
| O=C1Nc2ccccc2N(C(=O)c2ccc3ccccc3c2)C1c1nc2ccccc2[nH]1 (stereo not given) | 6.41 |
| Oc1ccccc1-c1cc(C(F)(F)C(F)F)nc(-c2ccccc2)n1 | 3.86 |
| CS(=O)(=O)N(Cc1ccc(Cl)cc1)c1ccc(C(=O)NCCC2=CCCCC2)cc1 | 6.78 |
| COc1ccc(C#Cc2ccc([C@@H]3[C@@H](CO)N4CCCCN(Cc5ccccc5F)C[C@@H]34)cc2)cc1 | 11.1 |
| O[C@H]1C[C@H](c2ccccc2)N(CC2CCCCC2)C[C@@H]1n1cc(C2CC2)nn1 | 8.64 |
| CCOc1ccc(/C=N/NC(=O)c2cc(-c3ccco3)nc3ccccc23)cc1 | 6.73 |
| CCOC(=O)c1cc2sccc2n1CC(=O)N1c2ccccc2CC1C (stereo not given) | 5.99 |
| O=c1c2ccccc2sn1-c1ccccc1 | 1.79 |
| Cc1ccc2c(Cl)c(C)c(N3CCCCC3)nc2n1 | 9.65 |
| Cc1ccc2oc(-c3ccc(NC(=O)c4ccc5c(c4)OCO5)cc3)nc2c1 | 1.1 |
